According to publication PMC7532676, “Salidroside can target both P4HB-mediated inflammation and melanogenesis of the skin” (Theranostics, 2020):

Biological target: prolyl 4-hydroxylase beta polypeptide (P4HB) (Homo sapiens, UniProt P07237)
Test: surface plasmon resonance (Biacore […])
Format: binding

Chain of prolyl 4-hydroxylase beta polypeptide (P4HB) (P07237 18-508): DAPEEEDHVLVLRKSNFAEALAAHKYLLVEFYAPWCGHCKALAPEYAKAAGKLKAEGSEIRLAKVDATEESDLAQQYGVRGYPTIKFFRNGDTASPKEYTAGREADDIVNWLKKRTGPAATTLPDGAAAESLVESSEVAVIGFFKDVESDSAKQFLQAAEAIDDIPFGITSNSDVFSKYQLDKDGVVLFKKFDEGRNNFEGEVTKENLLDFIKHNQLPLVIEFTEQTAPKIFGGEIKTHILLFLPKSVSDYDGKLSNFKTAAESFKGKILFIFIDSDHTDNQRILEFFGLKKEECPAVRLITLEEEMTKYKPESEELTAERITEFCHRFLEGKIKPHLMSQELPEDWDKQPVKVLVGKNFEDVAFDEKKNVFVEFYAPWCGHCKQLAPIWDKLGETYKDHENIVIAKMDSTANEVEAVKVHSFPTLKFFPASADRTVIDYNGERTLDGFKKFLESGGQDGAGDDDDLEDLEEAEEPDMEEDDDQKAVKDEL

OC[C@H]1O[C@@H](OCCc2ccc(O)cc2)[C@H](O)[C@@H](O)[C@@H]1O [SAL, Salidroside]
Kd: 13.8 µM
